Test results taken from a melting point compilation (Tetko et al.; mined from patent text by program, amines drawn as free bases though some values may be those of a salt).

melting point [°C] | SMILES
109 to 110 | CC(=O)Oc1c(C)c2c(c3ccccc13)OCC2c1ccc(C(C)C)cc1 (stereo unspecified)
192 to 193 | Cc1ncc(C#N)c(Nc2cccc3[nH]ccc23)c1-c1cc2ccccc2o1
74.5 to 76 | COc1ccc(S(=O)(=O)N(Cc2cccnc2)[C@@H](C(=O)NOCc2ccccc2)C(C)C)cc1
130 to 131 | CCC(COC)c1ccc(Cl)c2nc3n(c12)CCCN3c1ccc(Cl)cc1Cl (stereo unspecified)
140 to 142 | Cc1cc(NC(=O)NS(=O)(=O)c2ccccc2)cc(C)c1S(=O)(=O)C[N+](=O)[O-]
187 | NNC(=O)NC(c1cccc(Cl)c1)c1ccnc2ccccc12 (stereo unspecified)
136 to 138 | Cc1ccc(NC(=N)Nc2ncccc2OCc2c(F)cccc2Cl)cc1
180 to 181 | CC(C)(C)OC(=O)Nc1cc(OCc2ccccc2)c2ncccc2c1
154 to 156 | CC1=CC(OC(=O)c2ccc(N)cc2N)C(O)C(C)(C)CC1=O (stereo unspecified)
61 to 62 | CCCn1cnc2c1c(=O)n(CCCCOc1ccc(OC)cc1)c(=O)n2C
111 to 113 | COc1ccnc(CSc2nc3cscc3n2COC(C)=O)c1
140 to 142 | O=C(O)CCC(CSc1ccc2ccccc2c1)C(=O)O (stereo unspecified)
247 | NS(=O)(=O)c1cccc(-c2noc(-c3cnn4c(C(F)(F)F)cc(-c5ccc(Cl)cc5)nc34)n2)c1
150 to 152 | CCC(CN1C(=O)c2ccccc2C1=O)n1cnc(-c2cccnc2)c1 (stereo unspecified)
> 260 | O=C(Nc1nnc(-c2ccc(Cl)cc2)s1)c1c(Cl)cccc1Cl
61 to 63 | CC(C)(C)OC(=O)N[C@H]1CC[C@H](CC=O)CC1
162 to 163 | N#Cc1ccc(C=NO)c([N+](=O)[O-])c1
198 to 200 | O=C1Nc2ccc(Cl)cc2C1(NCCO)c1ccccc1Cl (stereo unspecified)
150 to 155 | COc1ccc(C(OCC2OC(n3cnc4c(=O)[nH]c(NC(=O)Cc5ccc(Cl)cc5)nc43)CC2O)(c2ccccc2)c2ccc(OC)cc2)cc1 (stereo unspecified)
105 to 106 | Cc1ccnc(C)c1O
129 | COc1cc(C2(OC)CCOCC2)ccc1OCc1ccc2ccccc2c1
94 to 95 | OCCc1noc(Cc2ccc(-c3ccccc3)cc2)n1
149 to 151 | NC(=O)N1CCC(c2nn(-c3ccccc3)c3cc(F)ccc23)CC1

melting point [°C] | SMILES
211 | CN1N=C(c2ccccc2)CC1=O
138 to 140 | COc1ccc2cc(CN(C)C(=O)c3oc4ccccc4c3C)ccc2c1Br
135 to 137 | COC(=O)C(=C(C)C)N1CC(NC(=O)OCc2ccccc2)C1=O (stereo unspecified)
69 to 75 | CCCCNS(=O)(=O)c1ccc(N2CCC(NC[C@H](O)COc3cccc4[nH]c(=O)[nH]c34)CC2)cc1
144 to 147 | O=C(Cc1ccc(F)cc1)NC1CCN(Cc2ccc(Cl)c(Cl)c2)CC1
215 to 218 | O=C1OCc2c1cc1ccc3c(c1c2-c1ccc(F)cc1)OCO3
144 to 146 | CCOC(=O)CCCOc1ccc(C(N)=O)cc1
135 to 138 | COC(=O)c1ccccc1-c1nc2cc(C)ccc2o1
155 to 158 | C[C@@H]1C[C@@H]2c3cccc4c3N(CCNC4)[C@@H]2C1
154 to 156 | COc1cc2c(c(OC)c1OC)-c1cc3c(cc1COC2)OCO3
203 to 208 | COc1cc2ccc(C(=N)NO)cc2cc1OC
112 to 115 | COC(=O)c1cc(Cl)c(Oc2ccc(OC)c(C(=O)c3ccc(F)cc3)c2)c(Cl)c1
139 to 140 | COc1cc2c(cc1O)CCN(C(C)=O)C2
238 to 240 | O=C(O)CC1CCCC2CC(=O)NC12 (stereo unspecified)
68 | Brc1csc2cc(OCc3ccccc3)ccc12
95 to 97 | COC(=O)[C@H](CSC)Nc1ncccc1[N+](=O)[O-]
71 | COC(=O)c1ccc(C(=O)CC(=O)OCc2ccccc2)cc1
214 to 215 | Clc1cccc(Nc2ncnc3[nH]nc(NCc4cccc5c4OCO5)c23)c1
165 to 167 | Cn1c(=O)c2c(nc(Cl)n2Cc2ccccc2Br)n(C)c1=O
210 to 211 | C=C(C)CN1CCN(CCC(=O)N2c3ccccc3C(=O)Nc3cccnc32)CC1
139 | CCOC(=O)C1=C(C)NN=C(C(=O)OC)C1c1cccc(Cl)c1 (stereo unspecified)
185 to 188 | CC(=O)N1CCN(c2ccc(-c3cnc4[nH]cc(C(=O)N[C@@H](C(=O)N5CC(C#N)C5)C5CC5)c4n3)cc2)CC1

The remaining lines, values behind:

SMILES | melting point [°C]
CCC12CCC3C4CCC(OC(C)=O)=CC4=CCC3C1CCC2OC(C)=O (stereo unspecified) | 148 to 156
COc1cc(OC)nc(Oc2cccc3c2C(=O)OC3C)n1 (stereo unspecified) | 190 to 191
NS(=O)(=O)c1ccc(-n2nc(C(F)F)cc2-c2cnccn2)cc1 | 191 to 194
CN(C)C1CCN(c2cc3ccc(Br)cc3c(=O)[nH]2)CC1 | 227 to 228
O=C(O)c1ccc(-c2cccc(O)c2)cc1 | 180
Nc1ccc(Cl)cc1C=Nc1ccccc1 | 74
O=C(CS(=O)(=O)Cc1ccccc1)CS(=O)(=O)C(c1ccc(Cl)cc1)c1ccc(Cl)cc1 | 72 to 90
CCCCOC(=O)NC1(c2ccccc2Cl)CCCCC1=O (stereo unspecified) | 130 to 132
CN1CCN(CC/C=C/c2ccc3c(Nc4ccc(Sc5nccn5C)c(Cl)c4)c(C#N)cnc3c2)CC1 | 225 to 235
C=CC(=O)Nc1cccc2c1sc1c(Nc3cccc(Br)c3)c(C#N)cnc12 | 286 to 287
CCOC(=O)c1cn(Cc2ccccc2)nc1OCc1ccc(OCc2nc(-c3ccco3)oc2C)c(OCC)c1 | 121 to 122
C[C@@H](NS(C)(=O)=O)[C@](O)(Cn1cncn1)c1ccc(Cl)cc1Cl (relative stereo) | 177 to 180
Cn1c(-c2ccccc2)nc2ncnn2c1=S | 246 to 248
CCCCCCCCCCN(CCC12CC3CC(CC(C3)C1)C2)C(=O)NCCCc1ccncc1 | 75 to 76
COc1cc(Nc2c(C#N)cnc3cc(-c4cscc4CN4CCOCC4)ccc23)c(Cl)cc1Cl | 188 to 190
CC(C)C1NC(=O)CN1C(=O)CNC(=O)CN1CCCC1=O (stereo unspecified) | 104 to 106
OC1CSC(Sc2ccccc2C(F)(F)F)C(O)C1O (stereo unspecified) | 114 to 115
Cc1cc2c3c(c1)c1c(n3CCNC2)CCC1 | 168 to 170
CCCCNC(=S)Nc1nc2ccc(OC(F)(F)F)cc2s1 | 211

SMILES | melting point [°C]
N#CC1(N2CCCC2)CCC2(CC1)OCCO2 | 65 to 67
COc1cc(Nc2nccc(-c3ccc(N4CCN(CCN)CC4)nc3)n2)cc(OC)c1OC | 88 to 89
Cc1cc(N2CNC(=O)C23CCN(CCCn2c(=O)[nH]c4ccccc42)CC3)ccc1Cl | 209
CCOC(=O)C1=C(C)NC(NC(C)=O)=C(C(=O)OCC)C1C (stereo unspecified) | 105
O=C(NCCF)c1ccc(CCN2CC=C(c3c[nH]c(-c4ccc(F)cc4)c3-c3ccncc3)CC2)cc1 | 209 to 211
COc1ccc(CCNS(=O)(=O)Cc2ccc3[nH]cc(CCN)c3c2)cc1 | 128 to 129
O=C(NCc1cccc(Br)c1)c1ccc2cnccc2n1 | 112 to 113
CC(C)(C)c1cc(NC(=O)c2cccn2-c2ccc(N)cc2)cc(C(C)(C)C)c1O | 218 to 219
O=c1[nH]ncc(N2CCN(C34CC5CC(CC(C5)C3)C4)CC2)c1Cl | 292 to 294
CCOC(=O)C1=C(C)NN=C(C(=O)OC)C1c1ccccc1C#N (stereo unspecified) | 199
Cc1cc2c(cc1C13CC1CCC3=O)C(C)(C)CCC2(C)C (stereo unspecified) | 152 to 154
CC(C)(CO)c1ccc(Cl)cc1 | 46 to 48
CONC(=N)c1ccc(-c2cc3ncn([C@H](C)[C@](O)(Cn4cncn4)c4ccc(F)cc4F)c(=O)c3s2)cc1 | 125 to 128
CC(C)(C)OC(=O)N[C@@H](Cc1ccc(OCc2ccccc2)cc1)C(=O)NCCN1CCCCC1 | 54 to 61
C#CC(OC(c1ccccc1)(c1ccccc1)c1ccccc1)C(C)(C)CCCC (stereo unspecified) | 75 to 77
CN1CC=C(c2c[nH]c3ccc(NC(=O)c4ccccc4)cc23)CC1 | > 250
CCCCCC(=O)N(C)Cc1cc(-c2ccc(C[C@H](OCC)C(=O)O)cc2)cs1 | 65
O=C(NCc1ccc(Cl)cc1)c1cnc2ccc(CN3CCOCC3)cc2c1O | 219 to 220
CN(C)CC1CCc2[nH]c3c(c2C1=O)CCC3 (stereo unspecified) | 164 to 165

SMILES | melting point [°C]
COc1ccc(-c2cncc(OC3SCC(OC(C)=O)C(OC(C)=O)C3OC(C)=O)c2)c(C)c1 (stereo unspecified) | 283
COC(=O)c1cccc2c1ccn2C | 194 to 195
Cc1c(O)cc2c(c1Br)[C@H](O)[C@H](N1CCC(O)(c3ccc(F)cc3)CC1)CO2 (relative stereo) | 196
COC1C(OC(=O)c2ccc([N+](=O)[O-])cc2)C=C(C)C(=O)CC1(C)C (stereo unspecified) | 136 to 138
CCCCc1oc2ccccc2c1-c1ccc(-c2ccc(O)cc2)cc1 | 128 to 129
COc1ccc(C)c([N+](=O)[O-])c1C | 53 to 55
CN1CCN(c2cc([N+](=O)[O-])ccc2Br)CC1 | 100 to 103
NNCC1(O)c2ccccc2C=Cc2ccccc21 | 128 to 131
COc1cc2c(cc1OC)CN(CC(=O)Nc1ccc([N+](=O)[O-])cc1)CC2 | 173 to 178
CCN(CC)CCSC1=C(C#N)C(c2ccccc2)(c2cccnc2)C(=O)N1 (stereo unspecified) | 133
CCOC(=O)CC(=O)C=Cc1ccccc1 | 49
O=C1CNC(c2ccc(Cl)cc2)=NN1 | > 260
CNC(=NCCn1cc(Cn2ccnc2)c2ccccc21)NC#N | 172 to 173
Cc1cccc2[nH]c(-c3ccccc3[N+](=O)[O-])nc12 | 167 to 168
O=C1CCCC(=O)C1=C(S)NCc1ccccc1 | 47 to 48
O=C(NCO)C(Nc1ccccc1[N+](=O)[O-])c1c(Cl)cccc1Cl (stereo unspecified) | 175
CS(=O)c1ccccc1S(=O)(=O)c1ccc(NC(=O)C(C)(O)C(F)(F)F)c(Cl)c1 (stereo unspecified) | 118 to 120
Cc1nnc2ccc(-c3cccs3)nn12 | 152 to 153
